PubChem BioAssay AID504857 (Southern Research Specialized Biocontainment Screening …, 2011)
Calls of active or inactive are those of the source. The rule behind the calls is not given here.

What was measured:
[1] = M. tuberculosis growth inhibition, dose response, H37Rv, 7H9 media, purified and synthesized compounds, set 4 (AID 504857); settings: Mycobacterium tuberculosis H37Rv growth in 7H9 media; at 100 µM (top of the series)
[2] = system: Mycobacterium tuberculosis H37Rv growth in 7H9 media; assay: as above; settings: for IC50: measured here: M. tuberculosis growth IC50

| SMILES | growth inhibition [1] | IC90 [2] [nM] | IC50 [2] [nM] |
| --- | --- | --- | --- |
| CCSc1nc(C)c(C)c(=O)[nH]1 | 1.25% (inactive) |  |  |
| O=C(CSc1ccccn1)NC1CCCCC1 | 5.02% (inactive) |  |  |
| NC(=O)CSc1nc2ccccc2c(=O)[nH]1 | 5.87% (inactive) |  |  |
| O=c1[nH]c(SCc2ccccc2Cl)nc2c1CCCC2 | 9.36% (inactive) |  |  |
| O=C(CSc1nccc(=O)[nH]1)NC1CCCCC1 | 6.38% (inactive) |  |  |
| Cc1cc(C)n2nc(N)c(N=Nc3ccccc3)c2n1 |  | 6310 | 4720 |
| CCC(Sc1nc2ccccc2c(=O)[nH]1)C(=O)NC1CCCCC1 (stereo not drawn) | 0.65% (inactive) |  |  |
| c1ccc(/N=C2\N=C(Nc3ccccn3)c3ccccc32)nc1 |  | 1360 | 1030 |
| CN1CCC(NC(=O)CSc2nc3ccccc3c(=O)[nH]2)CC1 | 4.15% (inactive) |  |  |
| Cc1c[nH]c(=S)[nH]c1=O | 2.29% (inactive) |  |  |
| CC1CCN(C(=O)C2CCN(c3nnc(-n4cccc4)s3)CC2)CC1 |  | 4870 | 2790 |
| Cc1ccc(NC(=O)COC(=O)CCc2c[nH]c3ccccc23)cc1[N+](=O)[O-] |  | 4680 | 2550 |
| O=c1[nH]c(=S)[nH]c2ccccc12 | -2.47% (inactive) |  |  |
| Cc1nc(SCC(=O)NC2CCCC2)[nH]c(=O)c1C |  | 10900 | 6250 |
| Cc1nc(SCC(N)=O)[nH]c(=O)c1C | 3.13% (inactive) |  |  |
| CCC(Sc1nc2ccccc2c(=O)[nH]1)C(=O)Nc1cccc(OC)c1 (stereo not drawn) | 18.9% (inactive) |  |  |
| CCSc1nc2ccccc2c(=O)[nH]1 | 2.57% (inactive) |  |  |
| CCOC1OC(=O)C(Cl)=C1Nc1ccccc1C (stereo not drawn) |  | 9910 | 3780 |
| Cc1cnc(SCC(=O)NC2CCCCC2)[nH]c1=O | 4.36% (inactive) |  |  |
| COc1ccc(NC(=O)CSc2nc3ccccc3c(=O)[nH]2)cc1 | 10.6% (inactive) |  |  |

| SMILES | growth inhibition [1] | IC90 [2] [nM] | IC50 [2] [nM] |
| --- | --- | --- | --- |
| Cc1cc(=O)[nH]c(SCC(=O)NC2CCCCC2)n1 | -5.77% (inactive) |  |  |
| COC(=O)c1ccc(CNc2c(N3CCCC3)c(=O)c2=O)cc1 | 1.55% (inactive) |  |  |
| Cc1[nH]c2ccccc2c1C(=O)COC(=O)c1ccc([N+](=O)[O-])s1 |  | 2930 | 1690 |
| CN(C)C(=O)CSc1nc2ccccc2c(=O)[nH]1 | 10.3% (inactive) |  |  |
| O=C(CSc1nc2ccccc2c(=O)[nH]1)N1CCOCC1 | 6.76% (inactive) |  |  |
| O=C(CSc1nc2c(c(=O)[nH]1)CCCC2)NC1CCCCC1 |  | < 10 | < 10 |
| CCOC(=O)CSc1nc(C)c(C)c(=O)[nH]1 | 7.45% (inactive) |  |  |
| O=C(CSc1nc2ccccc2c(=O)[nH]1)NC1CCCCC1 |  | 400 | 250 |
| COc1cccc(NC(=O)CSc2nc3c(c(=O)[nH]2)CCC3)c1 | -2.55% (inactive) |  |  |
| O=C(CSc1nc2ccccc2c(=O)[nH]1)NCc1ccc(Cl)cc1 |  | 1270 | 760 |
| Cc1nc(SCC(=O)N(C)c2ccccc2)[nH]c(=O)c1C | -2.18% (inactive) |  |  |
| CC1CCN(C(=O)CSc2nc3ccccc3c(=O)[nH]2)CC1 | 2.61% (inactive) |  |  |
| CC[N+](C)(CC)CCCCOc1ccc2c(c1)C(=O)c1cc(OCCCC[N+](C)(CC)CC)ccc1-2 |  | 3300 | 2470 |
| CCC(Sc1nc2c(c(=O)[nH]1)CCC2)C(=O)Nc1cccc(OC)c1 (stereo not drawn) | -2.13% (inactive) |  |  |
| Cc1ccc(C(=O)N/N=C(/CC(=O)c2cccs2)C(F)(F)F)cc1 |  | 2800 | 1230 |
| COc1cccc(NC(=O)CSc2nc3ccccc3c(=O)[nH]2)c1 | 7.54% (inactive) |  |  |
| COC(=O)C(Nc1nc(SCC(=O)NC2CCCCC2)nc2ccccc12)c1ccccc1 (stereo not drawn) | 0.63% (inactive) |  |  |
| Nc1cc(=O)[nH]c(SCC(=O)NC2CCCCC2)n1 | -0.79% (inactive) |  |  |
| Nc1c(C(=O)NC2CCCCC2)nsc1C(=O)OCC(=O)NC1CCCCC1 |  |  | 4420 |
| CN(C(=O)CSc1nc2ccccc2c(=O)[nH]1)C1CCCCC1 | 4.85% (inactive) |  |  |

| SMILES | growth inhibition [1] | IC90 [2] [nM] | IC50 [2] [nM] |
| --- | --- | --- | --- |
| Cc1cccc(/C=C/C(=O)c2ccc([N+](=O)[O-])o2)c1 |  | 1120 | 670 |
| COC(=O)C(C)Oc1ccc(Cc2ncc(C(F)(F)F)cc2Cl)cc1 (stereo not drawn) |  | 7110 | 4400 |
| Cc1[nH]c(=S)[nH]c(=O)c1C | 3.68% (inactive) |  |  |
| CNC(=O)CSc1nc2ccccc2c(=O)[nH]1 |  | 89800 | 54800 |
| Cc1cc(Br)ccc1NC(=O)c1cnc(N2CCN(c3ccccn3)CC2)c2ccccc12 |  | 35000 | 1030 |
| CC(C)CCNC(=O)CSc1nc2ccccc2c(=O)[nH]1 |  | 20 | < 10 |
| CC(C)NC(=O)CSc1nc2ccccc2c(=O)[nH]1 |  | 15200 | 10300 |
| O=C(CSc1nc2ccccc2c(=O)[nH]1)NC1CCCC1 |  | 710 | 240 |
| CCOc1ccc(-c2cc(C)[n+](CCc3ccc(OC)c(OC)c3)c(-c3ccc(OCC)cc3)c2)cc1 |  | 1110 | 770 |
| CC(C)CCNC(=O)CSc1nc2c(c(=O)[nH]1)CCC2 |  | 1850 | 1140 |
| Cc1cccc(-c2oc3ccc(-c4ccc5c(c4)OCO5)cc3c2C#Cc2cncn2C)c1 |  | 3130 | 2600 |
| Cc1nc(SCc2ccccc2Cl)[nH]c(=O)c1C | -1.2% (inactive) |  |  |
| Cn1c(SCC(=O)NC2CCCCC2)nc2ccccc2c1=O | 5.15% (inactive) |  |  |
| Cc1nc(SCC(=O)NCCC(C)C)[nH]c(=O)c1C |  | 9970 | 5780 |
| O=C(CSc1nc2c(c(=O)[nH]1)CCC2)NC1CCCCC1 |  | < 10 | < 10 |
| O=C(CSc1ncccn1)NC1CCCCC1 | -3.06% (inactive) |  |  |
| CC(Sc1nc2ccccc2c(=O)[nH]1)C(=O)NC1CCCCC1 (stereo not drawn) | 3.48% (inactive) |  |  |
| Cc1cc(=O)[nH]c(=S)[nH]1 | -3.77% (inactive) |  |  |
| Cc1ccc(NC(=O)CSc2nc3ccccc3c(=O)[nH]2)cc1Cl | 0.04% (inactive) |  |  |
